Data from PubChem BioAssay (NCI).
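Briefly, cells in 96-well plates were exposed to five compound concentrations for 48 h, and endpoints were estimated by linear interpolation. Definition used: TGI = concentration required for complete inhibition of growth.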

Tests used:
Experiment in all cases: NCI-60 cell line screen, 48 h
[1] = test system: DLD-1 colon
[2] = test system: MOLT-4 leukemia
[3] = test system: HT29 colon
[4] = test system: SNB-19 CNS
[5] = test system: U251 CNS
[6] = test system: HOP-18 NSCLC
[7] = test system: M14 melanoma
[8] = test system: CCRF-CEM leukemia
[9] = test system: K-562 leukemia
[10] = test system: HOP-92 NSCLC
[11] = test system: HCT-116 colon
[12] = test system: NCI-H23 lung
[13] = test system: SF-295 CNS
[14] = test system: RXF-631 renal
[15] = test system: A549 NSCLC
[16] = test system: HCT-15 colon
[17] = test system: CAKI-1 renal
[18] = test system: SN12C renal
[19] = test system: NCI-H226 lung
[20] = test system: TK-10 renal
[21] = test system: SK-MEL-28 melanoma
[22] = test system: OVCAR-5 ovarian
[23] = test system: SK-MEL-5 melanoma
[24] = test system: IGROV1 ovarian
[25] = test system: HL-60(TB) leukemia
[26] = test system: 786-0 renal
[27] = test system: MALME-3M melanoma
[28] = test system: COLO 205 colon
[29] = test system: HCC-2998 colon
[30] = test system: LXFL 529 NSCLC
[31] = test system: M19-MEL melanoma
[32] = test system: UO-31 renal
[33] = test system: ACHN renal
[34] = test system: HOP-62 NSCLC
[35] = test system: RPMI-8226 leukemia
[36] = test system: OVCAR-4 ovarian
[37] = test system: OVCAR-8 ovarian
[38] = test system: OVCAR-3 ovarian
[39] = test system: SK-OV-3 ovarian
[40] = test system: SF-268 CNS
[41] = test system: SR leukemia
[42] = test system: DMS 114 small cell lung
[43] = test system: SW-620 colon
[44] = test system: UACC-257 melanoma
[45] = test system: A498 renal
[46] = test system: LOX IMVI melanoma
[47] = test system: NCI-H460 lung
[48] = test system: UACC-62 melanoma
[49] = test system: DMS 273 small cell lung
[50] = test system: EKVX NSCLC
[51] = test system: NCI-H522 lung
[52] = test system: SNB-78 CNS
[53] = test system: SNB-75 CNS
[54] = test system: KM20L2 colon
[55] = test system: RXF 393 renal
[56] = test system: KM12 colon
[57] = test system: SK-MEL-2 melanoma
[58] = test system: SF-539 CNS
[59] = test system: T-47D breast
[60] = test system: MDA-MB-231 breast
[61] = test system: MCF7 breast
[62] = test system: NCI/ADR-RES ovarian
[63] = test system: HS 578T breast
[64] = test system: BT-549 breast
[65] = test system: DU-145 prostate
[66] = test system: MDA-N
[67] = test system: PC-3 prostate
[68] = test system: MDA-MB-435

`CCOC(=O)C12CC1(C(=O)OCC)C1CCC2C1` (configuration not stated) showed a TGI [1] greater than 100 µM, a TGI [2] greater than 100 µM and a TGI [3] greater than 100 µM. For the same compound, the TGI [4] was greater than 100 µM, the TGI [5] was greater than 100 µM and the TGI [6] was greater than 100 µM. For the same compound, the TGI [7] was greater than 100 µM, the TGI [8] was greater than 100 µM and the TGI [9] was greater than 100 µM. For the same compound, the TGI [10] was 95.2 µM, the TGI [11] was greater than 100 µM and the TGI [12] was greater than 100 µM. It also gave a TGI [13] greater than 100 µM, a TGI [14] greater than 100 µM and a TGI [15] greater than 100 µM. For the same compound, the TGI [16] was greater than 100 µM, the TGI [17] was greater than 100 µM and the TGI [18] was greater than 100 µM. The TGI [19] was greater than 100 µM, the TGI [20] was greater than 100 µM and the TGI [21] was greater than 100 µM. The TGI [22] was greater than 100 µM, the TGI [23] was greater than 100 µM and the TGI [24] was greater than 100 µM. For the same compound, the TGI [25] was greater than 100 µM, the TGI [26] was greater than 100 µM and the TGI [27] was greater than 100 µM. The TGI [28] was greater than 100 µM, the TGI [29] was greater than 100 µM and the TGI [30] was greater than 100 µM. For the same compound, the TGI [31] was greater than 100 µM, the TGI [32] was greater than 100 µM and the TGI [33] was greater than 100 µM. For the same compound, the TGI [34] was greater than 100 µM, the TGI [35] was greater than 100 µM and the TGI [36] was greater than 100 µM. The TGI [37] was greater than 100 µM, the TGI [38] was greater than 100 µM and the TGI [39] was greater than 100 µM. For the same compound, the TGI [40] was greater than 100 µM, the TGI [41] was greater than 100 µM and the TGI [42] was greater than 100 µM. For the same compound, the TGI [43] was greater than 100 µM, the TGI [44] was greater than 100 µM and the TGI [45] was greater than 100 µM. For the same compound, the TGI [46] was greater than 100 µM, the TGI [47] was greater than 100 µM and the TGI [48] was greater than 100 µM. It also gave a TGI [49] greater than 100 µM.

`COc1ccc(C(=O)C=C2NCCN2)cc1` gave a TGI [1] greater than 100 µM, a TGI [2] greater than 100 µM and a TGI [3] greater than 100 µM. It also gave a TGI [50] greater than 100 µM, a TGI [4] greater than 100 µM and a TGI [5] greater than 100 µM. For the same compound, the TGI [51] was greater than 100 µM, the TGI [6] was greater than 100 µM and the TGI [7] was greater than 100 µM. The TGI [8] was greater than 100 µM, the TGI [52] was greater than 100 µM and the TGI [9] was greater than 100 µM. For the same compound, the TGI [10] was greater than 100 µM, the TGI [11] was greater than 100 µM and the TGI [12] was greater than 100 µM. The TGI [13] was greater than 100 µM, the TGI [15] was greater than 100 µM and the TGI [17] was greater than 100 µM. It also gave a TGI [53] greater than 100 µM, a TGI [54] greater than 100 µM and a TGI [18] greater than 100 µM. For the same compound, the TGI [19] was greater than 100 µM, the TGI [55] was greater than 100 µM and the TGI [20] was greater than 100 µM. For the same compound, the TGI [21] was greater than 100 µM, the TGI [22] was greater than 100 µM and the TGI [23] was greater than 100 µM. The TGI [24] was greater than 100 µM, the TGI [25] was greater than 100 µM and the TGI [26] was greater than 100 µM. It also gave a TGI [27] greater than 100 µM, a TGI [28] greater than 100 µM and a TGI [29] greater than 100 µM. The TGI [30] was greater than 100 µM, the TGI [31] was greater than 100 µM and the TGI [32] was greater than 100 µM. For the same compound, the TGI [33] was greater than 100 µM, the TGI [34] was greater than 100 µM and the TGI [35] was greater than 100 µM. It also gave a TGI [36] greater than 100 µM, a TGI [37] greater than 100 µM and a TGI [38] greater than 100 µM. It also gave a TGI [56] greater than 100 µM, a TGI [39] greater than 100 µM and a TGI [57] greater than 100 µM. The TGI [58] was greater than 100 µM, the TGI [40] was greater than 100 µM and the TGI [41] was greater than 100 µM. The TGI [42] was greater than 100 µM, the TGI [43] was greater than 100 µM and the TGI [44] was greater than 100 µM. The TGI [45] was greater than 100 µM, the TGI [46] was greater than 100 µM and the TGI [47] was greater than 100 µM. The TGI [48] was greater than 100 µM and the TGI [49] was greater than 100 µM.

Work on `Clc1nc2c(-c3cccs3)ncnc2n1Cc1ccccc1` yielded a TGI [2] greater than 100 µM, a TGI [3] greater than 100 µM and a TGI [50] of 55.4 µM. It also gave a TGI [4] greater than 78.3 µM, a TGI [59] greater than 91.5 µM and a TGI [5] greater than 100 µM. The TGI [51] was greater than 100 µM, the TGI [60] was greater than 81.5 µM and the TGI [7] was greater than 100 µM. For the same compound, the TGI [61] was greater than 100 µM, the TGI [8] was greater than 100 µM and the TGI [9] was greater than 100 µM. For the same compound, the TGI [10] was 62 µM, the TGI [62] was greater than 100 µM and the TGI [11] was greater than 100 µM. For the same compound, the TGI [12] was greater than 100 µM, the TGI [13] was greater than 100 µM and the TGI [15] was greater than 100 µM. For the same compound, the TGI [63] was 87.8 µM, the TGI [16] was greater than 100 µM and the TGI [17] was greater than 21 µM. For the same compound, the TGI [64] was greater than 81.8 µM, the TGI [53] was 58.7 µM and the TGI [18] was greater than 100 µM. For the same compound, the TGI [19] was greater than 100 µM, the TGI [55] was 51.2 µM and the TGI [20] was 61.5 µM. For the same compound, the TGI [65] was 6.18 µM, the TGI [66] was greater than 100 µM and the TGI [21] was greater than 100 µM. For the same compound, the TGI [22] was greater than 100 µM, the TGI [67] was greater than 76.4 µM and the TGI [23] was greater than 100 µM. The TGI [24] was greater than 100 µM, the TGI [25] was greater than 70.3 µM and the TGI [26] was 59.5 µM. The TGI [27] was greater than 100 µM, the TGI [28] was greater than 100 µM and the TGI [29] was 9.84 µM. It also gave a TGI [68] greater than 100 µM, a TGI [32] of 1.09 µM and a TGI [33] of 4.36 µM. For the same compound, the TGI [34] was greater than 100 µM, the TGI [35] was 70.6 µM and the TGI [36] was greater than 100 µM. It also gave a TGI [37] greater than 100 µM, a TGI [38] of 49.8 µM and a TGI [56] of 37.5 µM. For the same compound, the TGI [39] was greater than 95.4 µM, the TGI [57] was greater than 100 µM and the TGI [58] was greater than 100 µM. The TGI [40] was greater than 100 µM, the TGI [41] was greater than 100 µM and the TGI [43] was greater than 70.5 µM. It also gave a TGI [44] of 61.9 µM, a TGI [45] of 55.6 µM and a TGI [46] greater than 100 µM. It also gave a TGI [47] greater than 83.2 µM and a TGI [48] greater than 100 µM.

In the case of `CC(C)(C)OC(=O)N1N=NC2C3CC(=O)C(O3)C21` (configuration not stated), the TGI [1] is reported as greater than 100 µM, the TGI [2] is reported as greater than 100 µM and the TGI [50] is reported as greater than 100 µM. The TGI [51] was greater than 100 µM, the TGI [6] was greater than 100 µM and the TGI [7] was greater than 100 µM. It also gave a TGI [8] greater than 100 µM, a TGI [9] greater than 100 µM and a TGI [10] greater than 100 µM. For the same compound, the TGI [13] was greater than 100 µM, the TGI [14] was greater than 100 µM and the TGI [15] was greater than 100 µM. The TGI [17] was greater than 100 µM, the TGI [54] was greater than 100 µM and the TGI [18] was greater than 100 µM. For the same compound, the TGI [55] was greater than 100 µM, the TGI [20] was greater than 100 µM and the TGI [23] was greater than 100 µM. The TGI [24] was greater than 100 µM, the TGI [26] was greater than 100 µM and the TGI [27] was greater than 100 µM. The TGI [30] was greater than 100 µM, the TGI [32] was greater than 100 µM and the TGI [33] was greater than 100 µM. The TGI [35] was greater than 100 µM, the TGI [37] was greater than 100 µM and the TGI [38] was greater than 100 µM. It also gave a TGI [58] greater than 100 µM, a TGI [41] greater than 100 µM and a TGI [43] greater than 100 µM. The TGI [45] was greater than 100 µM, the TGI [47] was greater than 100 µM and the TGI [49] was greater than 100 µM.
